Source: patent publication US6274594A, “Isoquinoline derivatives and their therapeutical use” (SmithKline Beecham p.l.c., priority 1997, dated 2001)

What was measured:
[1] = tested on: electrically-induced seizures (maximal electroshock seizure threshold); test: Maximal electroshock seizure (MEST) threshold test, rat model; type: in vivo; settings: 2 mg/kg p.o., suspension in methyl cellulose, one hour post dosing, statistically significant
Experimental: The maximal electroshock seizure (MEST) threshold test in rodents is particularly sensitive for detecting potential anticonvulsant properties^1. In this model, anticonvulsant agents elevate the threshold to electrically-induced seizures whilst proconvulsants lower the seizure threshold.
Mice (naive male, Charles River, U.K. CD-1 strain, 25-30 g) are randomly assigned to groups of 10-20 and dosed orally or intraperitoneally at a dose volume of 10 ml/kg with various doses of compound (0.3-300 mg/kg) or vehicle. Mice are then subjected at 30 or 60 min post dose to a single electroshock (0.1 sec, 50 Hz, sine wave form) administered via corneal electrodes. The mean current and standard error required to induce a tonic seizure in 50% (CC50) of the mice in a particular treatment group is determined by the `up and down` method of Dixon and Mood (1948)^2. Statistical comparisons between vehicle- and drug-treated groups are made using the method of Litchfield and Wilcoxon (1949)^3.
The threshold for maximal (tonic hindlimb extension) electroshock seizures in male rats (Sprague Dawley, 80-150 g, 6 weeks old) was determined by a Hugo Sachs Electronik stimulator which delivered a constant current (0.3 sec duration; from 1-300 mA in steps of 5-20 mA). […]
The percentage increase or decrease in CC50 for each group compared to the control is calculated. […]

[2] = target: novel receptor obtainable from rat forebrain tissue; test: [3H]-Compound A radioligand binding assay; settings: competition with [3H]-Compound A (usually 20 nM)
Experimental: WO 92/22293 (SmithKline Beecham) discloses compounds having anti-convulsantactivity, including inter alia the compound trans-(+)-6-acetyl-4S-(4-fluorobenzoylamino)-3,4-dihydro-2,2-dimethyl-2H-1-benzopyran-3R-ol (hereinafter referred to as Compound A). […] The affinity of test compounds to the novel receptor site is assessed as follows.
Whole forebrain tissue is obtained from rats. The tissue is first homogenised in buffer (usually 50 mM Tris/HCl, pH 7.4). The homogenised tissue is washed by centrifugation and resuspension in the same buffer, then stored at -70° C. until used.
To carry out the radioligand binding assay, aliquots of tissue prepared as above (usually at a concentration of 1-2 mg protein/ml) are mixed with aliquots of [3H]-Compound A dissolved in buffer. The final concentration of [3H]-Compound A in the mixture is usually 20 nM. The mixture is incubated at room temperature for 1 hour. [3H]-Compound A bound to the tissue is then separated from unbound [3H]-Compound A by filtration through Whatman GF/B glass fibre filters. The filters are then washed rapidly with ice-cold buffer. The amount of radioactivity bound to the tissue trapped on the filters is measured by addition of liquid scintillation cocktail to the filters followed by counting in a liquid scintillation counter. […]

## CN1CCc2ccc(NC(=O)N3CCc4ccccc43)cc2C1 [Example 1, 2,3-Dihydroindole-1-carboxylic Acid (2-methyl-1,2,3,4-tetrahydroisoquinolin-7-yl)amide]
[1]
  increase in seizure threshold (CC50) compared to control: 225%
[2]
  pKi value: greater than 8
